The values that follow come from patent publication US20250353864A1, “INDAZOLE CONTAINING MACROCYCLES AND THEIR USE” (BLOSSOMHILL THERAPEUTICS, INC., priority 2022, published 2025).

For this series the following is noted: from C=Cc1nn(C2CCCCO2)c2ccc(-c3cnn(C)c3O[C@H](CC)CN(C)Cc3c(I)c(OCC)nn3CCO[Si](C)(C)C(C)(C)C)cc12; cc_pd bond; 15-membered ring; Pd(OAc)2/TBAC/NaHCO3; DMF; 97.8 mM; 80.0 °C; 1.0 h.

SMILES strings stand for the structures.

Turning to `CCOc1nn(CCO[Si](C)(C)C(C)(C)C)c2c1C=Cc1nn(C3CCCCO3)c3ccc(cc13)-c1cnn(C)c1O[C@H](CC)CN(C)C2` (stereo partly shown), the ring closure, crude yield turned out to be 62%.
